pKi: −log10 of the molar value. Where two headings read alike, the source gives them in different places.
Biological target: T1, hAR (Homo sapiens, UniProt P10275)
T1 construct: expressed in transfected cells; host or cells: COS-1 cells transiently transfected with pRShAR, pRS-β-Gal and pGEM
T1 sequence (P10275 1-920): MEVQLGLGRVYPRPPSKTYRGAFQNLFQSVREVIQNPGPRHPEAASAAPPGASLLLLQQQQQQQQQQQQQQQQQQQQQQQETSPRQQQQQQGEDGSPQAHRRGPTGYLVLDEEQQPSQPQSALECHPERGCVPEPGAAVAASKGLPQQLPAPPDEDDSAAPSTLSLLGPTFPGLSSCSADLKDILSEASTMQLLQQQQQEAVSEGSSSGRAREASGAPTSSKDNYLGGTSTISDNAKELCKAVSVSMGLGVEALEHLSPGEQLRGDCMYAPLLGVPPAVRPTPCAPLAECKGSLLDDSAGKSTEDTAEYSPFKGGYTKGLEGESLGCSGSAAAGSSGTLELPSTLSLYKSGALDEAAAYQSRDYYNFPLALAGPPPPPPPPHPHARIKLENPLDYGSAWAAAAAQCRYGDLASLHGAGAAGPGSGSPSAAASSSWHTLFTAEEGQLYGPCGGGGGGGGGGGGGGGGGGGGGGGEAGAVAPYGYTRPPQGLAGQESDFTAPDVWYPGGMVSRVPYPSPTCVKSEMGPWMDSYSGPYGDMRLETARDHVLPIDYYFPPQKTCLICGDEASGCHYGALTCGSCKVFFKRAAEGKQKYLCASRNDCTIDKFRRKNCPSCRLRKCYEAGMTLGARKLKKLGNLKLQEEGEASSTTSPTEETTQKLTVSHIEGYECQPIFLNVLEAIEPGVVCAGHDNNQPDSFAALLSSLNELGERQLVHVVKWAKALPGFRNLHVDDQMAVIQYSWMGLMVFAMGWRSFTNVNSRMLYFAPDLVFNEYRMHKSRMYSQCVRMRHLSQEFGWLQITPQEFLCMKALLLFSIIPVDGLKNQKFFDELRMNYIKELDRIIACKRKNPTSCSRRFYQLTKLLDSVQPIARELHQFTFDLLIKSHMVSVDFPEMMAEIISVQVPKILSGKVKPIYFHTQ
Assay: IR Binding Assay: displacement of 3H-DHT in COS-1 cells transfected with pRShAR
Description: COS-1 cells in 96-well microtiter plates containing DMEM-10% FBS were transfected using standard techniques with plasmids pRShAR (2 ng/well), pRS-β-Gal (50 ng/well) and pGEM (48 ng/well). Six hours after transfection, media was removed, the cells were washed with PBS and fresh media was added. Twenty-four hours later, the media was changed to serum free DMEM and the cells were incubated for twenty-four hours.
Three replicates were used for each sample.
After three hours at 37° C., aliquots of media from each well of both test plates and control plates were removed to estimate the amount of free ^3H-DHT. The remaining media was removed, the cells were washed three times with PBS, and cells were lysed with a Triton X-100-based buffer. The lysates were assayed for amount of bound ^3H-DHT and β-Gal activity using a scintillation counter and spectrophotometer, respectively.
Determination of Kd for ^3H-DHT. Total binding was defined as binding of ^3H-DHT in the absence of 100 molar excess of unlabeled DHT in the control plate. […] binding was defined as binding of ^3H-DHT in the presence of 100 molar excess of unlabeled DHT in the control plate. Specific binding was defined as the difference between the total binding and the nonspecific binding, normalized by the β-Gal rate. Specific binding was used in Scatchard analysis to determine the Kd for ^3H-DHT.
Test Compounds. To determine binding affinity (Ki) for test compounds, the data from each concentration of test compound was calculated as a percentage of the signal for the sample with no test compound. […] The Ki values were determined by the Cheng-Prusoff equation, where: […]

[1] = 1 nM 3H-DHT, transfected COS-1 cells, 3 hours at 37° C., Cheng-Prusoff, read-out: Binding to hAR (Ki value ranges)

SMILES | pKi | pKi [1]
O=c1cc(C(F)(F)F)c2c3c(ccc2[nH]1)-c1c(O)cccc1OC3 [Compound 115, 10-Hydroxy-4-trifluoromethyl-1H,5H-6-oxa-1-aza-chrysen-2-one] | > 8.00 | –
COc1ccc2oc(=O)c3c(ccc4[nH]c(=O)cc(C)c43)c2c1 [Compound 103, 9-Methoxy-4-methyl-1H-6-oxa-1-aza-chrysene-2,5-dione] | – | < 7.30
COc1cccc2c1-c1ccc3[nH]c(=O)cc(C)c3c1C(C)(OC)O2 (racemic) [Compound 108, (±)-5,10-Dimethoxy-4,5-dimethyl-1H,5H-6-oxa-1-azachrysen-2-one] | – | < 7.30
COc1c(OC(=O)C(C)(C)C)ccc2oc(=O)c3c(ccc4[nH]c(=O)cc(C)c43)c12 [Compound 102, 2,2-Dimethylpropionic acid 10-methoxy-4-methyl-2,5-dioxo-2,5-dihydro-1H-6-oxa-1-aza-chrysen-9-yl ester] | 7.30 to 8.00 | –
COc1cccc2c(=O)oc3c(ccc4[nH]c(=O)cc(C(F)(F)F)c43)c12 [Compound 126, 10-Methoxy-4-trifluoromethyl-1H-5-oxa-1-azachrysene-2,6-dione] | 7.30 to 8.00 | –
CC(C)(C)C(=O)Oc1cccc2c1-c1ccc3[nH]c(=O)cc(C(F)(F)F)c3c1CO2 [Compound 116, 2,2-Dimethyl-propionic acid 2-oxo-4-trifluoromethyl-2,5-dihydro-1H-6-oxa-1-aza-chrysen-10-yl ester] | > 8.00 | –
COc1cccc2c1-c1ccc3[nH]c(=O)cc(C(F)(F)F)c3c1C(O)O2 (racemic) [Compound 114, (±)-5-Hydroxy-10-methoxy-4-trifluoromethyl-1H,5H-6-oxa-1-aza-chrysen-2-one] | < 7.30 | –
COc1c(O)ccc2c1-c1ccc3[nH]c(=O)cc(C)c3c1CO2 [Compound 119, 9-Hydroxy-10-methoxy-4-methyl-1H,5H-6-oxa-1-aza-chrysen-2-one] | – | > 8.00
Cc1c([N+](=O)[O-])ccc2c1c(=O)oc1cccc(O)c12 [Compound 129, 1-Hydroxy-7-methyl-8-nitrobenzo[c]coumarin] | – | > 8.00
COc1cccc2c1-c1ccc3[nH]c(=O)cc(C)c3c1C(=O)OC2 [Compound 123, 4-Methoxy-10-methyl-7,13-dihydro-12-oxa-7-aza-benzo[3,4]cyclohepta[1,2-α]-naphthalene-8,11-dione] | – | < 7.30
COc1cccc2c1-c1ccc3[nH]c(=O)cc(C(F)(F)F)c3c1OC2 [Compound 127, 10-Methoxy-4-trifluoromethyl-1,6-dihydro-5-oxa-1-azachrysen-2-one] | 7.30 to 8.00 | –
CCOc1ccc2oc(=O)c3c(ccc4[nH]c(=O)cc(C)c43)c2c1OC [Compound 121, 9-Ethoxy-10-methoxy-4-methyl-1H-6-oxa-1-aza-chrysene-2,5-dione] | – | < 7.30
COc1c(O)ccc2oc(=O)c3c(ccc4[nH]c(=O)cc(C)c43)c12 [Compound 117, 9-Hydroxy-10-methoxy-4-methyl-1H-6-oxa-1-aza-chrysene-2,5-dione] | – | > 8.00
COc1cccc2oc(=O)c3c(C)c([N+](=O)[O-])ccc3c12 [Compound 130, 1-Methoxy-7-methyl-8-nitrobenzo[c]coumarin] | – | < 7.30
COc1cccc2c1-c1ccc3[nH]c(=O)cc(C(F)(F)F)c3c1CO2 [Compound 113] | 7.30 to 8.00 | –
COc1c(OC(C)C)ccc2oc(=O)c3c(ccc4[nH]c(=O)cc(C)c43)c12 [Compound 120, 9-Isopropoxy-10-methoxy-4-methyl-1H-6-oxa-1-aza-chrysene-2,5-dione] | – | 7.30 to 8.00
COc1cccc2c1-c1ccc3[nH]c(=O)cc(C)c3c1C(O)O2 (racemic) [Compound 105, (±)-5-Hydroxy-10-methoxy-4-methyl-1H,5H-6-oxa-1-aza-chrysen-2-one] | – | < 7.30
COC(=O)c1cccc2oc(=O)c3c(ccc4[nH]c(=O)cc(C)c43)c12 [Compound 111, 4-Methyl-2,5-dioxo-2,5-dihydro-1H-6-oxa-1-aza-chrysene-10-carboxylic acid methyl ester] | – | < 7.30
CCOc1ccc2oc(=O)c3c(ccc4c3c(C)cc(=O)n4CC)c2c1OC [Compound 122, 9-Ethoxy-1-ethyl-10-methoxy-4-methyl-1H-6-oxa-1-aza-chrysene-2,5-dione] | – | < 7.30
COc1cccc2c1-c1ccc3[nH]c(=O)cc(C)c3c1CO2 [Compound 109, 10-Methoxy-4-methyl-1H,5H-6-oxa-1-azachrysen-2-one] | – | < 7.30
COc1c(O)ccc2c1-c1ccc3[nH]c(=O)cc(C)c3c1C(OC)O2 (racemic) [Compound 118, (±)-9-Hydroxy-5,10-dimethoxy-4-methyl-1H,5H-6-oxa-1-aza-chrysen-2-one] | – | < 7.30
Cc1cc(=O)[nH]c2ccc3c4c(CO)cccc4oc(=O)c3c12 [Compound 124, 10-Hydroxymethyl-4-methyl-1H-6-oxa-1-aza-chrysene-2,5-dione] | 7.30 to 8.00 | –
COc1cccc2c1-c1ccc3[nH]c(=O)cc(C)c3c1C(C)O2 (racemic) [Compound 107, (±)-10-Methoxy-4,5-dimethyl-1H,5H-6-oxa-1-aza-chrysen-2-one] | < 7.30 | –
Cc1cc(=O)[nH]c2ccc3c4c(OC(=O)C(C)(C)C)cccc4oc(=O)c3c12 [Compound 104, 2,2-Dimethylpropionic acid 4-methyl-2,5-dioxo-2,5-dihydro-1H-6-oxa-1-aza-chrysen-10-yl ester] | – | > 8.00

Source: patent US20090203725A1, “Androgen Receptor Modulator Compounds and Methods” (priority 2005, published 2009)
